Test results reported in patent US7855166B2, “Sulfonylamino(thio)carbonyl compounds” (Bayer Cropscience GmbH, priority 2005, dated 2010).

What was measured:
[1] = test system: weed plants such as Sinapis alba, Chrysanthemum segetum, Avena sativa, Stellaria media, Echinochloa crus-galli, Lolium multiflorum, Setaria viridis, Abutilon …; assay: Pre-emergence effect on weeds (greenhouse pot test, visual scoring); format: in vivo; conditions: applied pre-emergence at a rate of 0.3 kg or less of active substance per hectare; scored after 3 to 4 weeks in comparison to untreated controls
[2] = test system: weed plants such as Sinapis alba, Echinochloa crus-galli, Lolium multiflorum, Chrysanthemum segetum, Setaria viridis, Abutilon theophrasti, Amaranthus …; assay: Post-emergence effect on weeds (greenhouse pot test, visual scoring); format: in vivo; conditions: applied post-emergence (three-leaf stage) at a rate of 0.3 kg or less of active substance per hectare; scored after about 3 to 4 weeks in comparison to untreated controls

Row | SMILES | herbicidal action against weed plants (visual scoring of plant damage or emergence damage) [1] | herbicidal action against weed plants (effect scored visually) [2]
1 | CCCOc1nn(C(=O)NS(=O)(=O)c2c(Cl)cc(C(F)(F)F)cc2I)c(=O)n1C1CC1 [Compound 1.848] | very good herbidical action | very good herbicidal action
2 | COc1nn(C(=O)NS(=O)(=O)c2c(Cl)ccc(Cl)c2I)c(=O)n1C [Compound 1.849] | very good herbidical action | very good herbicidal action
3 | CCOc1nn(C(=O)NS(=O)(=O)c2c(Cl)ccc(Cl)c2I)c(=O)n1C [Compound 1.850] | very good herbidical action | very good herbicidal action
4 | CCCOc1nn(C(=O)NS(=O)(=O)c2c(Cl)ccc(Cl)c2I)c(=O)n1C [Compound 1.851] | very good herbidical action | very good herbicidal action
5 | CC(C)Oc1nn(C(=O)NS(=O)(=O)c2c(Cl)ccc(Cl)c2I)c(=O)n1C [Compound 1.852] | very good herbidical action | very good herbicidal action
6 | COc1nn(C(=O)NS(=O)(=O)c2c(Cl)ccc(Cl)c2I)c(=O)n1C1CC1 [Compound 1.853] | very good herbidical action | very good herbicidal action
7 | CCOc1nn(C(=O)NS(=O)(=O)c2c(Cl)ccc(Cl)c2I)c(=O)n1C1CC1 [Compound 1.854] | very good herbidical action | very good herbicidal action
8 | CCOc1nn(C(=O)NS(=O)(=O)c2ccc(C)c(F)c2I)c(=O)n1C [Compound 1.856] | very good herbidical action | very good herbicidal action
9 | CCCOc1nn(C(=O)NS(=O)(=O)c2ccc(C)c(F)c2I)c(=O)n1C [Compound 1.857] | very good herbidical action | very good herbicidal action
10 | Cc1ccc(S(=O)(=O)NC(=O)n2nc(OC(C)C)n(C)c2=O)c(I)c1F [Compound 1.858] | very good herbidical action | very good herbicidal action
11 | COc1nn(C(=O)NS(=O)(=O)c2ccc(C)c(F)c2I)c(=O)n1C1CC1 [Compound 1.859] | very good herbidical action | very good herbicidal action
12 | CCOc1nn(C(=O)NS(=O)(=O)c2ccc(C)c(F)c2I)c(=O)n1C1CC1 [Compound 1.860] | very good herbidical action | very good herbicidal action
13 | CCCOc1nn(C(=O)NS(=O)(=O)c2ccc(C)c(F)c2I)c(=O)n1C1CC1 [Compound 1.861] | very good herbidical action | very good herbicidal action
14 | COc1nn(C(=O)NS(=O)(=O)c2cc(C)c(C)cc2I)c(=O)n1C [Compound 1.862] | very good herbidical action | very good herbicidal action
15 | CCOc1nn(C(=O)NS(=O)(=O)c2cc(C)c(C)cc2I)c(=O)n1C [Compound 1.863] | very good herbidical action | very good herbicidal action
16 | CCCOc1nn(C(=O)NS(=O)(=O)c2cc(C)c(C)cc2I)c(=O)n1C [Compound 1.864] | very good herbidical action | very good herbicidal action
17 | Cc1cc(I)c(S(=O)(=O)NC(=O)n2nc(OC(C)C)n(C)c2=O)cc1C [Compound 1.865] | very good herbidical action | very good herbicidal action
18 | COc1nn(C(=O)NS(=O)(=O)c2cc(C)c(C)cc2I)c(=O)n1C1CC1 [Compound 1.866] | very good herbidical action | very good herbicidal action

Row | SMILES | herbicidal action against weed plants (visual scoring of plant damage or emergence damage) [1] | herbicidal action against weed plants (effect scored visually) [2]
19 | CCOc1nn(C(=O)NS(=O)(=O)c2cc(C)c(C)cc2I)c(=O)n1C1CC1 [Compound 1.867] | very good herbidical action | very good herbicidal action
20 | CCCOc1nn(C(=O)NS(=O)(=O)c2cc(C)c(C)cc2I)c(=O)n1C1CC1 [Compound 1.868] | very good herbidical action | very good herbicidal action
21 | COc1nn(C(=O)NS(=O)(=O)c2ccc(Cl)cc2I)c(=O)n1C [Compound 1.869] | very good herbidical action | very good herbicidal action
22 | CCOc1nn(C(=O)NS(=O)(=O)c2ccc(Cl)cc2I)c(=O)n1C [Compound 1.870] | very good herbidical action | very good herbicidal action
23 | CCCOc1nn(C(=O)NS(=O)(=O)c2ccc(Cl)cc2I)c(=O)n1C [Compound 1.871] | very good herbidical action | very good herbicidal action
24 | CC(C)Oc1nn(C(=O)NS(=O)(=O)c2ccc(Cl)cc2I)c(=O)n1C [Compound 1.872] | very good herbidical action | very good herbicidal action
25 | COc1nn(C(=O)NS(=O)(=O)c2ccc(Cl)cc2I)c(=O)n1C1CC1 [Compound 1.873] | very good herbidical action | very good herbicidal action
26 | CCOc1nn(C(=O)NS(=O)(=O)c2ccc(Cl)cc2I)c(=O)n1C1CC1 [Compound 1.874] | very good herbidical action | very good herbicidal action
27 | CCCOc1nn(C(=O)NS(=O)(=O)c2ccc(Cl)cc2I)c(=O)n1C1CC1 [Compound 1.875] | very good herbidical action | very good herbicidal action
28 | CCCc1ccc(S(=O)(=O)NC(=O)n2nc(OC)n(C)c2=O)c(I)c1 [Compound 1.876] | very good herbidical action | very good herbicidal action
29 | CCCc1ccc(S(=O)(=O)NC(=O)n2nc(OCC)n(C)c2=O)c(I)c1 [Compound 1.877] | very good herbidical action | very good herbicidal action
30 | CCCOc1nn(C(=O)NS(=O)(=O)c2ccc(CCC)cc2I)c(=O)n1C [Compound 1.878] | very good herbidical action | very good herbicidal action
31 | CCCc1ccc(S(=O)(=O)NC(=O)n2nc(OC(C)C)n(C)c2=O)c(I)c1 [Compound 1.879] | very good herbidical action | very good herbicidal action
32 | CCCc1ccc(S(=O)(=O)NC(=O)n2nc(OC)n(C3CC3)c2=O)c(I)c1 [Compound 1.880] | very good herbidical action | very good herbicidal action
33 | CCCc1ccc(S(=O)(=O)NC(=O)n2nc(OCC)n(C3CC3)c2=O)c(I)c1 [Compound 1.881] | very good herbidical action | very good herbicidal action
34 | CCCOc1nn(C(=O)NS(=O)(=O)c2ccc(CCC)cc2I)c(=O)n1C1CC1 [Compound 1.882] | very good herbidical action | very good herbicidal action
35 | CCCCc1ccc(S(=O)(=O)NC(=O)n2nc(OCC)n(C)c2=O)c(I)c1 [Compound 1.883] | very good herbidical action | very good herbicidal action
